Results reported in patent US10918107B2, “Encapsulated lactams” (Conopco, Inc., priority 2015, dated 2021).

Assay: Solubility of the lactam in 2-heptanone carrier oil
Format: physicochemical
Conditions: 'also soluble at 1%' (0.5% solution used in the example)
Method: 2-heptanone was used as the carrier (oil phase) for the lactam at a ratio of 1:199 (Lactam:Heptanone) which equates to 0.5% lactam solution. The inventor(s) have determined that the lactam is also soluble at 1%. The isocyanate was polymethylene polyphenyl isocyanate (Mn340) and the crosslinker was hexamethylenediamine (HMDA). Emulsification was carried out at a shear of 15K. The stabiliser is a commercial naphthalene sulphonate called Morwet-D425®. Morwet forms dark brown solutions so the encapsulated slurry is often buff/brown coloured.

- solubility of lactam in 2-heptanone (carrier oil): ≥ 1%
SMILES: C=C1NC(=O)C=C1c1ccc(Cl)cc1 [Ref. 488, 4-(4-chlorophenyl)-5-methylene-pyrrol-2-one]
